Measurements reported in US20090022803A1, “Oral Formulations For Delivery of Catecholic Butanes Including Ndga Compounds” (priority 2005, published 2009).

What was measured:
[1] = system: HeLa cells; assay: Cell proliferation and cell death after 72 hr treatment, trypan blue exclusion; assay type: cell-based, human; conditions: CPE formulation, lots EM1001 and EM1002
Protocol: M4N in 10% (w/v) HP-β-CD and 25% (v/v) PEG 300 (hereafter, the “CPE formulation”), M4N in 30% (w/v) HP-β-CD and 25% (v/v) PEG 300 (hereafter, the “CPE 25/30 formulation”) and M4N in 27% (w/v) HP-β-CD and 33% (v/v) PEG 300 (hereafter, the “CPE 33/27 formulation”) was tested for their effects on cell death and proliferation on two different tumor cell lines: HeLa, an HPV-18 positive human cervical cancer cell line, and C-33A, an HPV-negative human cervical cancer cell line. M4N in DMSO was also tested in parallel. Both tumor cell lines were treated with increasing amounts of M4N: 0 μM, 20 μM, 40 μM, 60 μM and 80 μM, for 72 hr with the DMSO or the CPE formulation. […] After 72 hr of treatment or no treatment, the total number of cells and the number of live cells in each sample were counted, using the trypan blue exclusion method. The cell proliferation rate and the percentage of dead cells in each sample were analyzed. […]
Various lots of M4N were tested to show the effectiveness of the drug of different lots. […] After 72 hr of treatment or no treatment, the total number of cells and the number of live cells in each sample were counted, using the trypan blue exclusion method. The cell proliferation rate and the percentage of dead cells in each sample were analyzed.

[2] = Absorption of M4N in beagle dogs upon oral administration of solid formulations in capsules, serum LC/MS/MS; assay type: in vivo; conditions: oral single 100 mg/kg
Protocol: Five groups of dogs (n=2 per group, one male and one female) (age=approximately 6-9 months old) were exposed to a single 100 mg/kg dose of M4N in excipient to determine the optimal oral solid excipient. The composition of M4N in excipient was encapsulated in size 12 hard gelatin capsules prior to oral administration. The animals were fasted overnight prior to dosing. The excipients/formulations tested are set forth in Table 19 and were: (a) no excipient, where M4N was encapsulated; (b) HP-β-CD; (c) TPGS; (d) soybean oil+beeswax; and (e) olive oil+beeswax. Blood was collected from each animal via the jugular vein at the following time points: predose, 0.5 hr, 1 hr, 1.5 hr, 2 hr, 4 hr, 6 hr and 8 hr post dosing. Concentrations of M4N in serum were determined by Liquid Chromatography combined with tandem Mass Spectroscopy (LC/MS/MS).

[3] = 40 mg/mL M4N/PEG 300 stability, RP-HPLC analysis; assay type: physicochemical; conditions: for M4N: 40 mg/mL M4N/PEG 300
Protocol: The stability of 40 mg/mL M4N dissolved in 100% PEG 300 was evaluated up to 24 hours incubation at 30° C., 45° C. and 60° C. A stock 40 mg/mL M4N in PEG 300 was prepared at 60° C., following the procedure set forth in Example 18. Subsequently, aliquots were removed and incubated at the appropriate temperature. Samples were rotated at 450 rpm during the entire course of incubation. Visual observations and RP-HPLC data were collected throughout. […] The formation of crystals coincided with a loss of soluble M4N (Table 30). The 40 mg/mL M4N/PEG 300 samples incubated at 45° C. and 60° C. were stable after 24 hours incubation as assessed by visual observations and RP-HPLC analysis (Tables 29 and 30).

[4] = dog, in vivo, iv, 75 mg/kg
[5] = Oral fed/fasted IV/oral pharmacokinetic comparison of M4N formulations, single 75 mg/kg dose; conditions: dogs, single 75 mg/kg oral or IV

With COc1ccc(C[C@@H](C)[C@@H](C)Cc2ccc(OC)c(OC)c2)cc1OC [Formulation M4N, meso-1,4-bis(3,4-dimethoxyphenyl)-2,3-dimethylbutane] the “effectiveness of different lots of M4N” value [1] was “remains the same”, the “Absorption, ranking between formulations” value ([2]; Lyophilized HP-β-CD (81%)+M4N (185 mg/g)) was “higher than that containing TPGS” and the “Absorption, ranking between formulations” value ([2]; TPGS (20%)+M4N (133 mg/g)) was “higher than that containing soybean oil+beeswax”. For the same compound, the “Absorption, ranking between formulations” value ([2]; olive oil (95%)+beeswax (5%)+M4N (200 mg/g)) was “highest”, the “Absorption, ranking between formulations” value ([2]; soybean oil (95%)+beeswax (5%)+M4N (200 mg/g)) was “higher than M4N without an excipient” and the “amount or types of impurities peaks” value ([3]; 40 mg/mL M4N/PEG 300, 30° C., 45° C. and 60° C.) was “No changes”. The “stability by visual observations and RP-HPLC analysis” value ([3]; 40 mg/mL M4N/PEG 300, 24 hours at 45° C.) was “stable”, the “stability by visual observations and RP-HPLC analysis” value ([3]; 40 mg/mL M4N/PEG 300, 24 hours at 60° C.) was “stable” and the “M4N” value ([3]; 30° C., 0 hours) was 39.5 mg/mL. For the same compound, the “M4N” value ([3]; 30° C., 2 hours) was 40.8 mg/mL, the “M4N” value ([3]; 30° C., 6 hours) was 40.6 mg/mL and the “M4N” value ([3]; 30° C., 24 hours) was 37.4 mg/mL. For the same compound, the “M4N” value ([3]; 45° C., 2 hours) was 40.4 mg/mL, the “M4N” value ([3]; 45° C., 6 hours) was 39.8 mg/mL and the “M4N” value ([3]; 45° C., 24 hours) was 40.6 mg/mL. The “M4N” value ([3]; 60° C., 2 hours) was 39.1 mg/mL, the “M4N” value ([3]; 60° C., 6 hours) was 39.2 mg/mL and the “M4N” value ([3]; 60° C., 24 hours) was 39.2 mg/mL. For the same compound, the Clinical observations [4] was “diarrhea, emesis, and ataxia” and the survival [5] was “All animals survived”.
